Measurements taken from US20130253020A1, “Treatment of Degenerative Disc Diseases” (priority 2012, published 2013).

Columns and labels:
[1] = system: advanced glycation end-products (AGEs) in nucleus pulposus (NP) tissues; assay: AGEs in NP disc tissue: autofluorescence of acid hydrolysates divided by collagen content, after thiazolium salt incubation; design: species or system human; settings: 4 days
Description: Eleven lumbar spines (T12/L1-L5/S1) were collected fresh frozen cadavers consisting of 5 males and 6 females with a mean age of 82.5 years ±10.2. The cross-sections of the lumbar disc were visually categorized into Thompson grades 1 to 5 and corroborated with fluoroscopic imaging. The grade 1 (“Control”) and grade 5 (“Degenerate”) discs were used (total 27 discs). The discs were separated into annulus fibrosus (AF) and nucleus pulposus (NP) tissues. The Control discs were tested mechanically and then divided to undergo 0, 2, 4, 8, and 10 days of ribosylation in 0.6M ribose at 37° C. The treated Control discs, along with the degenerated discs were then tested mechanically using a dynamic microindentation device in 0.15M PBS at 20° C. using the Biopent 1000 reference point indentation system (Active Life Scientific, CA). A 1.47 mm diameter cylindrical probe cyclically indented the tissue to a depth of 300 μm at 1 Hz to generate a force displacement curve. Three distinct sites per AF/NP were measured and averaged between the sites. The resulting force-deformation curves, accounting for the probe geometry, were used to compute elastic modulus and tan δ.
Following mechanical measurements, the O-day and 4-day treated Control NP tissues were incubated in 0.15M of a thiazolium salt known to cleave AGEs products (Oturai P S, Christensen M, Rolin B, Pedersen K E, Mortensen S B, Boel E. Effects of advanced glycation end-product inhibition and cross-link breakage in diabetic rats. Metab Clin Exp 2000:49:996-1000.) for 4 days. […] Following the second incubation, all tissues were mechanically assessed again, and then subjected to acid hydrolysis by 6N hydrochloric acid (16 hours, 110C). The collagen crosslinking by AGEs, a sugar-derived posttranslational modification of amino acids, was quantified by measuring the autofluorescence of the acid hydrolysates at […] and divided by collagen content (Monnier V M, Kohn R R, Cerami A. Accelerated age-related browning of human collagen in diabetes mellitus. Proc Natl Acad Sci USA 1984; 81:583-587). […]

[2] = system: nucleus pulposus (NP) tissues; assay: Dynamic microindentation of NP tissue (indentation modulus, tan δ) after thiazolium salt incubation; design: species or system human; settings: ribosylated or degenerated, thiazolium salt solution 4 days, FIG. 2
Description: Eleven lumbar spines (T12/L1-L5/S1) were collected fresh frozen cadavers consisting of 5 males and 6 females with a mean age of 82.5 years ±10.2. The cross-sections of the lumbar disc were visually categorized into Thompson grades 1 to 5 and corroborated with fluoroscopic imaging. The grade 1 (“Control”) and grade 5 (“Degenerate”) discs were used (total 27 discs). The discs were separated into annulus fibrosus (AF) and nucleus pulposus (NP) tissues. The Control discs were tested mechanically and then divided to undergo 0, 2, 4, 8, and 10 days of ribosylation in 0.6M ribose at 37° C. […] Three distinct sites per AF/NP were measured and averaged between the sites. […]
Following mechanical measurements, the O-day and 4-day treated Control NP tissues were incubated in 0.15M of a thiazolium salt known to cleave AGEs products (Oturai P S, Christensen M, Rolin B, Pedersen K E, Mortensen S B, Boel E. Effects of advanced glycation end-product inhibition and cross-link breakage in diabetic rats. Metab Clin Exp 2000:49:996-1000.) for 4 days. […] Following the second incubation, all tissues were mechanically assessed again, and then subjected to acid hydrolysis by 6N hydrochloric acid (16 hours, 110C). […]

primary spine disc cells = assay: mRNA expression of inflammatory cytokines and r-AGEs in primary spine disc cells exposed to AGEs; format: cell-based, human and bovine; settings: FIG. 3
Description: Primary spine disc cells were isolated from both human and bovine spine discs. The tissues were digested using a cocktail containing collagenase P, trypsin, and other enzymes to release the primary cells embedded within the tissues (Neidlinger-Wilke C, Liedert A, Wuertz K, Buser Z, Rinkler C, Käfer W, et al. Mechanical stimulation alters pleiotrophin and aggrecan expression by human intervertebral disc cells and influences their capacity to stimulate endothelial migration. Spine 2009; 34:663-669). These cells were then conditioned and allowed to expand for 3 passages. After conditioning in normal cell culture media, the cells were exposed to several conditions: Control, bovine serum albumin, and AGEs. The treatments were dissolved directly in the cell culture media and then the cells were subjected to these conditions for 24 hours. Messenger ribose nucleic acids (mRNA) were then extracted from these cells and amplified into respective complimentary deoxyribose nucleic acids (cDNA). The cDNA sequences were tested for the normalized expression (normalized to the housekeeping gene, GAP-DH) of Interleukin (IL)-4, IL-6 (both of which initiate the inflammatory pain response), and the Receptor-for Advanced Glycation End-products (r-AGEs). The normalized expressions compared to the controls were computed by the delta-delta CT method.

Structure (SMILES): O=C(C[n+]1ccsc1)c1ccccc1.[Br-] [PTB, N-phenacyl thiazolium bromide]
- AGEs in NP disc tissue ([1]; Grade 1 (Control) NP tissue, 0.15M PTB solution): significant reductions
- AGEs in NP disc tissue ([1]; Grade 5 (Degenerate) NP tissue, 0.15M PTB solution): significant reductions
- AGEs in NP disc tissue ([1]; Grade I+Ribosylation NP tissue (4-day ribosylation), 0.15M thiazolium salt): significant reductions
- mechanical properties of NP tissue (indentation modulus, tan δ) [2]: rescuing effect
- cellular inflammatory response, marked by the cytokines IL-4 and IL-6 (primary spine disc cells; concurrent administration with AGEs in cell culture media, 24 hours): suppresses this response
- Interleukin-1 expression (primary spine disc cells; primary spinal disc cells): decrease
- Interleukin-6 expression (primary spine disc cells; primary spinal disc cells): decrease
- expression of the Receptor-for-Advanced Glycation End-Products (primary spine disc cells; primary spinal disc cells): reduction
